“Also recorded” adds a separate entry of the source. Read-outs that look alike come from different tables or passages of the source. Marks after values point to notes of the source that are not given here.
Assays:
[1] = Safety: adverse events by NCI-CTCAE v4.0, phase 1 study Part 1; type: in vivo, human
Method: (§1) We defined the dose-limiting toxicity (DLT) period as the first 28 days of each dose-escalation cohort’s treatment cycle (DLT window). […] Non-hematologic DLTs included grade ≥3 nausea, vomiting, or diarrhea enduring >48 hours despite standard medical management, grade 3 fatigue persisting >7 days or grade 4 fatigue, any grade ≥3 metabolic laboratory abnormalities that are not controlled within 48 hours by standard medical management.

[2] = Plasma pharmacokinetics of AMG 232 at steady state (LC-MS/MS, noncompartmental); type: in vivo, human; conditions: for AUC(0-t): read-out: AUC24hr
Source text: The following PK parameters were estimated: maximum observed plasma concentration (Cmax), time to reach Cmax (tmax), area-under-the-plasma concentration-time curve (AUC), terminal phase half-life (t1/2,z), and apparent total body clearance (CL/F). We performed noncompartmental analyses for PK parameter estimation using Phoenix® WinNonlin® version 6.4 or later software (Certara™, Princeton, NJ). […] We prepared descriptive statistics, tables, and graphs using Phoenix® WinNonlin® and Prism version 9.1.1 (GraphPad Software, San Diego, CA).

p53 pathway = conditions: cited from earlier work
[3] = tested on: TP53-WT melanoma cell lines; design: method as in PMID 24810962; conditions: combined with inhibitors of PI3K or MAPK signaling pathway; cited from earlier work
[4] = Dose escalation (3+3+3): dose-limiting toxicity and maximum tolerated dose; type: in vivo, human; conditions: once daily, seven days of a 21-day cycle
Method: Trametinib, 2 mg once daily (both Arms), and dabrafenib, 150 mg twice daily (Arm 1 only), were subsequently started on day 8, cycle 1 (Fig. 1). Treatment was administered continuously in consecutive treatment cycles until disease progression, intolerability, or withdrawal of consent.
as §1

[5] = All patients, N=31, attributed to AMG 232 only
[6] = All patients, N=31, attributed to any drug
[7] = human, plasma, oral, 120 mg, Cycle 1 Day 7, AMG 232 monotherapy, Arm 2, 120 mg, geometric mean (CV%)
[8] = human, plasma, oral, 120 mg, Cycle 2 Day 7, co-administered with T + D, Arm 1, 120 mg, geometric mean (CV%)
[9] = human, plasma, oral, 120 mg, Cycle 2 Day 7, co-administered with T, Arm 2, 120 mg, geometric mean (CV%)
[10] = human, plasma, oral, 180 mg, Cycle 1 Day 7, AMG 232 monotherapy, Arm 1, 180 mg, geometric mean (CV%)
[11] = human, plasma, oral, 180 mg, Cycle 2 Day 7, co-administered with T + D, Arm 1, 180 mg, geometric mean (CV%)
[12] = human, plasma, oral, 240 mg, Cycle 1 Day 7, AMG 232 monotherapy, Arm 2, 240 mg, geometric mean (CV%)
[13] = human, plasma, oral, 240 mg, Cycle 2 Day 7, co-administered with T, Arm 2, 240 mg, geometric mean, n = 2

CC(C)[C@@H](CS(=O)(=O)C(C)C)N1C(=O)[C@@](C)(CC(=O)O)C[C@H](c2cccc(Cl)c2)[C@H]1c1ccc(Cl)cc1 [AMG 232]
Share of treatment-emergent AEs attributable to AMG 232 ([1]; 240 of 614 AEs, in 30 subjects): 39% | AEs Grade 1 ([1]; All patients, N=31): 31 (100) N (%) | AEs Grade 2 ([1]; All patients, N=31): 30 (97) N (%) | AEs Grade 3 ([1]; All patients, N=31): 25 (81) N (%) | AEs Grade 4 ([1]; All patients, N=31): 2 (6) N (%) | AEs leading to AMG 232 d/c ([1]; All patients, N=31): 7 (23) N (%) | AEs leading to dabraf d/c ([1]; All patients, N=31): 2 (6) N (%) | Serious AE Adrenal insufficiency ([1]; All patients, N=31): 2 (6) N (%) | Serious AE Anemia ([1]; All patients, N=31): 1 (3) N (%) | Serious AE Cellulitis ([1]; All patients, N=31): 2 (6) N (%) | Serious AE Dehydration ([1]; All patients, N=31): 3 (10) N (%) | Serious AE Diarrhea ([1]; All patients, N=31): 4 (13) N (%) | Serious AE Fatigue ([1]; All patients, N=31): 1 (3) N (%) | Serious AE Hypotension ([1]; All patients, N=31): 1 (3) N (%) | Serious AE Nausea ([1]; All patients, N=31): 5 (16) N (%) | Serious AE Peripheral Edema ([1]; All patients, N=31): 1 (3) N (%) | Serious AE Pulmonary embolism ([1]; All patients, N=31): 5 (16) N (%) | Serious AE Pyrexia ([1]; All patients, N=31): 5 (16) N (%) | Serious AE Seizure ([1]; All patients, N=31): 3 (10) N (%) | Serious AE Thrombocytopenia ([1]; All patients, N=31): 1 (3) N (%) | Serious AE Vomiting ([1]; All patients, N=31): 5 (16) N (%) | AE AST increased [1, 5]: 3 (10) N (%) | AE Abdominal pain [1, 5]: 5 (16) N (%) | AE Adrenal insufficiency [1, 5]: 0 N (%) | AE Anemia [1, 5]: 5 (16) N (%) | AE Cellulitis [1, 5]: 0 N (%) | AE Chills [1, 5]: 2 (6) N (%) | AE Cough [1, 5]: 2 (6) N (%) | AE Decreased appetite [1, 5]: 13 (42) N (%) | AE Dehydration [1, 5]: 1 (3) N (%) | AE Dermatitis acneiform [1, 5]: 3 (10) N (%) | AE Diarrhea [1, 5]: 24 (77) N (%) | AE Dizziness [1, 5]: 3 (10) N (%) | AE Dry mouth [1, 5]: 3 (10) N (%) | AE Dysgeusia [1, 5]: 4 (13) N (%) | AE Dyspepsia [1, 5]: 3 (10) N (%) | AE Fatigue [1, 5]: 23 (74) N (%) | AE Headache [1, 5]: 3 (10) N (%) | AE Hypertension [1, 5]: 2 (6) N (%) | AE Hypotension [1, 5]: 1 (3) N (%) | AE Lipase increased [1, 5]: 4 (13) N (%) | AE Malaise [1, 5]: 4 (13) N (%) | AE Nausea [1, 5]: 27 (87) N (%) | AE Neutropenia [1, 5]: 3 (10) N (%) | AE Peripheral Edema [1, 5]: 1 (3) N (%) | AE Pruritus [1, 5]: 0 N (%) | AE Pulmonary embolism [1, 5]: 2 (6) N (%) | AE Pyrexia [1, 5]: 2 (6) N (%) | AE Rash [1, 5]: 2 (6) N (%) | AE Seizure [1, 5]: 0 N (%) | AE Thrombocytopenia [1, 5]: 3 (10) N (%) | AE Vomiting [1, 5]: 21 (68) N (%) | AE AST increased [1, 6]: 6 (19) N (%) | AE Abdominal pain [1, 6]: 6 (19) N (%) | AE Adrenal insufficiency [1, 6]: 2 (6) N (%) | AE Anemia [1, 6]: 9 (29) N (%) | AE Cellulitis [1, 6]: 2 (6) N (%) | AE Chills [1, 6]: 8 (26) N (%) | AE Cough [1, 6]: 8 (26) N (%) | AE Decreased appetite [1, 6]: 16 (52) N (%) | AE Dehydration [1, 6]: 9 (29) N (%) | AE Dermatitis acneiform [1, 6]: 14 (45) N (%) | AE Diarrhea [1, 6]: 27 (87) N (%) | AE Dizziness [1, 6]: 5 (16) N (%) | AE Dry mouth [1, 6]: 5 (16) N (%) | AE Dysgeusia [1, 6]: 6 (19) N (%) | AE Dyspepsia [1, 6]: 4 (13) N (%) | AE Fatigue [1, 6]: 25 (81) N (%) | AE Headache [1, 6]: 15 (48) N (%) | AE Hypertension [1, 6]: 8 (26) N (%) | AE Hypotension [1, 6]: 8 (26) N (%) | AE Lipase increased [1, 6]: 5 (16) N (%) | AE Malaise [1, 6]: 4 (13) N (%) | AE Nausea [1, 6]: 28 (90) N (%) | AE Neutropenia [1, 6]: 5 (16) N (%) | AE Peripheral Edema [1, 6]: 13 (42) N (%) | AE Pruritus [1, 6]: 11 (35) N (%) | AE Pulmonary embolism [1, 6]: 5 (16) N (%) | AE Pyrexia [1, 6]: 11 (35) N (%) | AE Rash [1, 6]: 7 (23) N (%) | AE Seizure [1, 6]: 3 (10) N (%) | AE Thrombocytopenia [1, 6]: 7 (23) N (%) | AE Vomiting [1, 6]: 22 (71) N (%) | AMG 232-related AE abdominal pain, patients ([1]; all 31 patients): 16% | AMG 232-related AE anemia, patients ([1]; all 31 patients): 16% | AMG 232-related AE decreased appetite, patients ([1]; all 31 patients): 42% | AMG 232-related AE diarrhea, patients ([1]; all 31 patients): 77% | AMG 232-related AE dysgeusia, patients ([1]; all 31 patients): 13% | AMG 232-related AE fatigue, patients ([1]; all 31 patients): 74% | AMG 232-related AE increased lipase, patients ([1]; all 31 patients): 13% | AMG 232-related AE malaise, patients ([1]; all 31 patients): 13% | AMG 232-related AE nausea, patients ([1]; all 31 patients): 87% | AMG 232-related AE vomiting, patients ([1]; all 31 patients): 68% | Patients with serious AMG 232-related AEs ([1]; all 31 patients): 8 patients | Serious AMG 232-related AE diarrhea, patients ([1]; all 31 patients): 10% | Serious AMG 232-related AE nausea, patients ([1]; all 31 patients): 13% | Serious AMG 232-related AE pulmonary embolism, patients ([1]; all 31 patients): 6.5% | Serious AMG 232-related AE vomiting, patients ([1]; all 31 patients): 10% | SAE diarrhea, patients ([1]; all 31 patients, AMG 232 + T±D): 13% | SAE nausea, patients ([1]; all 31 patients, AMG 232 + T±D): 16% | SAE vomiting, patients ([1]; all 31 patients, AMG 232 + T±D): 16% | Treatment-emergent AE acneiform dermatitis, patients ([1]; all 31 patients, AMG 232 + T±D): 45% | Treatment-emergent AE decreased appetite, patients ([1]; all 31 patients, AMG 232 + T±D): 52% | Treatment-emergent AE diarrhea, patients ([1]; all 31 patients, AMG 232 + T±D): 87% | Treatment-emergent AE fatigue, patients ([1]; all 31 patients, AMG 232 + T±D): 81% | Treatment-emergent AE headache, patients ([1]; all 31 patients, AMG 232 + T±D): 48% | Treatment-emergent AE nausea, patients ([1]; all 31 patients, AMG 232 + T±D): 90% | Treatment-emergent AE peripheral edema, patients ([1]; all 31 patients, AMG 232 + T±D): 42% | Treatment-emergent AE pruritus, patients ([1]; all 31 patients, AMG 232 + T±D): 35.5% | Treatment-emergent AE pyrexia, patients ([1]; all 31 patients, AMG 232 + T±D): 35.5% | Treatment-emergent AE vomiting, patients ([1]; all 31 patients, AMG 232 + T±D): 71% | Patients with serious AEs (SAEs) ([1]; all 31 patients, AMG 232 + T±D, 24 patients): 77% | Patients withdrawn/discontinued from AMG 232 due to AEs ([1]; all 31 patients, seven patients): 23% | AUC24hr ([2]; Cycle 1 Day 7, AMG 232 monotherapy, Arm 1, 120 mg, geometric mean (CV%)): 5140 (59.4%) n = 4 hr•ng/mL | AUC24hr ([2]; Cycle 2 Day 7, co-administered with T, Arm 2, 180 mg, geometric mean (CV%)): 9410 (107.0%)^a n = 5 hr•ng/mL | Effect of trametinib ± dabrafenib on AMG 232 PK exposures (Cmax, AUC24hr) ([2]; cycle 2 day 7 vs cycle 1 day 7, Wilcoxon matched-pairs signed-rank test p>0.05): not significant; also recorded: not significantly altered | Cmax ([2]; human, plasma, oral, 120 mg, Cycle 1 Day 7, AMG 232 monotherapy, Arm 1, 120 mg, geometric mean (CV%)): 491 ng/mL | Cmax [2, 7]: 914 ng/mL | AUC(0-t) [2, 7]: 9810 ng·h/mL | Cmax [2, 8]: 392 ng/mL | AUC(0-t) [2, 8]: 3140 ng·h/mL | Cmax [2, 9]: 630 ng/mL | AUC(0-t) [2, 9]: 6740 ng·h/mL | Cmax [2, 10]: 847 ng/mL | AUC(0-t) [2, 10]: 5890 ng·h/mL | Cmax ([2]; human, plasma, oral, 180 mg, Cycle 1 Day 7, AMG 232 monotherapy, Arm 2, 180 mg, geometric mean (CV%)): 1250 ng/mL | Cmax [2, 11]: 647 ng/mL | AUC(0-t) [2, 11]: 4750 ng·h/mL | Cmax ([2]; human, plasma, oral, 180 mg, Cycle 2 Day 7, co-administered with T, Arm 2, 180 mg, geometric mean (CV%)): 1010 ng/mL | Cmax [2, 12]: 3300 ng/mL | AUC(0-t) [2, 12]: 21100 ng·h/mL | Cmax [2, 13]: 953 ng/mL | AUC(0-t) [2, 13]: 6280 ng·h/mL | Tmax ([2]; human, plasma, oral, Cycle 2 Day 7, co-administered with T, Arm 2, 240 mg, median (min-max)): 1.5 h | doses with more consistent and pronounced effect on the p53 pathway (p53 pathway): 25 to 100 mg/kg | lowest dose affecting the p53 pathway (upregulation of p21 and MIC-1) (p53 pathway; doses as low as): 5 mg/kg | interaction in cell death [3]: synergy | MTD of AMG 232 combined with dabrafenib plus trametinib ([4]; Arm 1): 120 mg | MTD of AMG 232 combined with trametinib ([4]; Arm 2): 120 mg

Source: article PMC9395504 (Investigational New Drugs, 2022)
